Legend:
Format in all cases: in vivo
[1] = system: diabetic db/db (BKS.Cg-m+/+Leprdb/J) male mice; assay: Oral glucose tolerance test in diabetic db/db mice; conditions: for Blood glucose during an oral glucose tolerance test. Area under the curve (AUC) −240 to 240 min.: Day 56, mean ± S.E.M.
Procedure: (§1) A total of forty-six (46) diabetic db/db (BKS.Cg-m+/+Leprdb/J) male mice, 5 weeks old at arrival, was obtained from Janvier (France). The mice were acclimatized for two weeks in their new environment with free access to normal chow (Altromin 1324, Brogaarden A/S, Gentofte, Denmark) and domestic quality tap water. They were housed in groups of n=2 in a light-, temperature-, and humidity-controlled room (12-hour light: 12-hour dark cycle, lights On/Off at 04.00/16.00 h; 22±1° C.; 50±10% relative humidity). During the habituation period animals was accustomed to the experimental paradigm.
(§2) Baseline, free fed blood glucose samples were obtained bi-weekly prior to study start (blood was collected from the tail vein) in order to screen for the diabetic state. The 40 animals closest to the mean BG/BW value at day −3 were randomized into 4 groups (n=10/group; the remaining 6 animals was be discarded from the main study): Group 1: Vehicle, BID, SC. Group 2: SEQ ID NO 6, 50 nmol/kg, BID, SC. Group 3: SEQ ID NO 6, 250 nmol/kg, BID, SC. […] During day 0-58 of the experiment, animals received a subcutaneous dosing twice daily at 06.00-08.00 hours and again between 02.00-04.00 hours. Dose volume was 5 ml/kg.
(§3) On experimental day 56 an oral glucose tolerance test was performed. Animals were mildly fasted as food was removed 4 hours prior to administration of the glucose bolus. Compounds were administered 45 minutes prior to the OGTT. At t=0, mice received an oral glucose load of 2 g/kg glucose (Glucose 200 mg/ml, Fresenius Kabi, Sweden). Glucose was given as gavage via a gastrically placed tube connected to a syringe ensuring accurate dosing. Blood samples were collected from the tail vein and blood-glucose was measured at time points −60, 0, 15, 30, 60, 120 and 240 minutes after the glucose administration. Samples for measuring HbA1c was taken in parallel with blood glucose at t=−60 minutes. Mice were re-fed after the last blood sampling.

C57BL/6J mice = assay: GLP1R-GLP2R dual agonist compound study: cumulative food intake
Source text: Forty (40, n=10, 4 groups) male C57BL/6J mice obtained from Taconic, Denmark, were used. At the time of the experiment, the mice had reached an age of 9-10 weeks. The mice were acclimatized for one week in their new environment and offered regular chow diet (Altromin 1324, Brogaarden A/S, Denmark) and domestic quality tap water. Animals were housed two per cage during the study, in a light-, temperature-, and humidity-controlled room (12-hour light: 12-hour dark cycle, lights on/off at 4 AM/4 PM hour; 22±1° C.; 50±10% relative humidity). […] Animals were uniquely identified with implantable microchips (Pet ID Microchip, E-vet) in all mice upon arrival. Animals were identified using the WS-2 weight station (MBrose ApS, Faaborg, Denmark) connected to a laptop running the HM02Lab software (Ellegaard Systems, Faaborg, Denmark). The HM02Lab software matches the body weight with ID and calculates the dose directly based on the body weight. All mice were handled for 3 days prior to the experiment to acclimatize the animals to handling and injections.

[2] = system: diabetic db/db (BKS.Cg-m+/+Leprdb/J) male mice; assay: Fed blood glucose and HbA1c in diabetic db/db mice; conditions: for Blood glucose, fed state / HbA1c: Day 56, mean ± S.E.M.
Procedure: as §1, §2, §3

For “R^1-HGDGSFTSELSTYLDALAARDFIAWLIQTKITDR^2 [SEQ ID NO 6]”, which “glucose tolerance compared to liraglutide” value ([1]; 250 nmol/kg, P=0.03, Student's t-test) is on record?
Its value is “even further improved glucose tolerance compared to animals treated with liraglutide”.

What about the “Blood glucose during an oral glucose tolerance test. Area under the curve (AUC) −240 to 240 min.” value ([1]; 50 nmol/kg BID SC) of the same substance?
The value was 3543 ± 469 mmol·min/L.

And the “Blood glucose during an oral glucose tolerance test. Area under the curve (AUC) −240 to 240 min.” value ([1]; 250 nmol/kg BID SC)?
The value was 2472 ± 119 mmol·min/L.

And the Cumulative food intake (C57BL/6J mice; Day 0-7, 3.0 mg/kg BID SC, mean ± S.E.M.)?
Its Cumulative food intake is 21.96 ± 1.46 g.

What about the “cumulative food intake compared to vehicle and teduglutide” value (C57BL/6J mice; dosed twice daily for 7 days) of the same substance?
Its value is “considerably reduced cumulative food intake”.

And the “effect on fed-state blood glucose, HbA1c and glucose tolerance” value ([2]; 8 weeks of treatment, db/db mice)?
Its value is “reduction in fed-state blood glucose, HbA1c levels as well as an improving of glucose tolerance in a dose dependent manner”.

And the “Blood glucose, fed state” value ([2]; 50 nmol/kg BID SC)?
Its value is 7.2 ± 1.0 mmol/L.

And the HbA1c ([2]; 50 nmol/kg BID SC)?
The HbA1c was 5.0 ± 0.2 %.

And the “Blood glucose, fed state” value ([2]; 250 nmol/kg BID SC)?
The value was 5.9 ± 0.4 mmol/L.

And the HbA1c ([2]; 250 nmol/kg BID SC)?
The HbA1c was 4.4 ± 0.1 %.
